The NIST ThermoML archive (doi:10.1021/je900799e)

Experiment: molar heat capacity at constant pressure
Details: Liquid, metal-bellows calorimeter

F/C=C/C(F)(F)F [trans-1,3,3,3-tetrafluoropropene]
molar heat capacity at constant pressure [J/K/mol]
Details	310 K	320 K	330 K	340 K	350 K	360 K	370 K
2000 kPa	165.36	168.78	175.62	188.17	206.42	–	–
3000 kPa	160.8	164.22	169.92	179.05	192.73	214.4	272.56
4000 kPa	157.38	160.8	166.5	169.92	182.47	195.01	224.66
5000 kPa	155.1	158.52	161.94	164.22	174.48	183.61	204.13
